Legend:
[1] = system: lentiviral vector harboring WT IN; assay: microbe, parasite or virus in culture; format: cell-based, HIV-1; conditions: for antiviral potency against WT vector with increasing FBS: 5%, 10% and 15% FBS, relative to values at 5% FBS, data not shown
[2] = cellular cytotoxicity assay; format: cell-based; conditions: human, HOS human osteosarcoma cells
[3] = system: HIV-1 construct carrying IN mutation R263 K; assay: single-round HIV-1 infectivity assay, R263 K IN mutant; format: cell-based; conditions: Human immunodeficiency virus 1, read-out: EC50 R263 K IN mutant
[4] = system: HIV-1 construct carrying IN mutation G118R; assay: single-round HIV-1 infectivity assay, G118R IN mutant; format: cell-based; conditions: Human immunodeficiency virus 1, read-out: EC50 G118R IN mutant

Structure (SMILES) | antiviral potency against WT vector with increasing FBS [1] | CC50 [2] [µM] | other results
COC(=O)CNc1c(C(=O)NCc2ccc(F)cc2F)c(=O)n(O)c2ncccc12 [5q, Methyl 2-((3-((2,4-Difluorobenzyl)carbamoyl)-1-hydroxy-2-oxo-1,2-dihydro-1,8-naphthyridin-4-yl)amino)acetate] | essentially unchanged |  | 
Nc1c(C(=O)NCc2ccc(F)cc2F)c(=O)n(O)c2ncccc12 [5v, 4-Amino-N-(2,4-difluorobenzyl)-1-hydroxy-2-oxo-1,2-dihydro-1,8-naphthyridine-3-carboxamide] | essentially unchanged |  | 
COC(=O)[C@@H](CO)Nc1c(C(=O)NCc2ccc(F)cc2F)c(=O)n(O)c2ncccc12 [(R)-5t, Methyl (R)-2-((3-((2,4-Difluorobenzyl)carbamoyl)-1-hydroxy-2-oxo-1,2-dihydro-1,8-naphthyridin-4-yl)amino)-3-hydroxypropanoate] |  | > 250 | 
CC(=O)OCCNc1c(C(=O)NCc2ccc(F)cc2F)c(=O)n(O)c2ncccc12 [5p, 2-((3-((2,4-Difluorobenzyl)carbamoyl)-1-hydroxy-2-oxo-1,2-dihydro-1,8-naphthyridin-4-yl)amino)ethyl Acetate] | essentially unchanged |  | 
COC(=O)[C@H](C)Nc1c(C(=O)NCc2ccc(F)cc2F)c(=O)n(O)c2ncccc12 [(S)-5r, Methyl (S)-2-((3-((2,4-Difluorobenzyl)carbamoyl)-1-hydroxy-2-oxo-1,2-dihydro-1,8-naphthyridin-4-yl)amino)propanoate] |  | > 250 | 
COC(=O)[C@H](Nc1c(C(=O)NCc2ccc(F)cc2F)c(=O)n(O)c2ncccc12)c1ccccc1 [(R)-5s, Methyl (R)-2-((3-((2,4-Difluorobenzyl)carbamoyl)-1-hydroxy-2-oxo-1,2-dihydro-1,8-naphthyridin-4-yl)amino)-2-phenylacetate] |  | > 250 | 
Cc1nnc(C(=O)NC(C)(C)c2nc(C(=O)NCc3ccc(F)cc3)c(O)c(=O)n2C)o1 [compound 1, raltegravir] |  |  | EC50 ([1]; Human immunodeficiency virus 1, read-out: EC50 (WT)): 0.004 ± 0.002 µM; EC50 [3]: 0.009 ± 0.004 µM; EC50 [4]: 0.036 ± 0.005 µM

Reference: paper PMC4216207 (Journal of Medicinal Chemistry, 2014)
